We go through one molecule from patent publication US7407940B2, “Antimicrobial hexapeptides” (Helix BioMedix Inc., priority 2005, dated 2008).

Where a SMILES comes first, the peptide text is derived from it. The star is where a group is joined. Octanoyl = CCCCCCCC(=O)*

In one series the test system is MRSA. The series can be described thus: Kill curve in 10% sheep serum-phosphate buffer against MRSA. The series is classed as cell-based, S. aureus. Conditions: 10% serum / biological environments.
The test system of another series is P. aeruginosa. The series is classed as cell-based. Conditions: drug resistant P. aeruginosa. As to the method: (§1) The fractional inhibitory concentration (FIC) index was used to determine the synergy between antimicrobial agents. Peptide MICs against test microorganisms were determined three times on separate occasions. […]
Another series relates to C. albicans. The series can be described thus: Kill curve in vaginal simulant, C. albicans. To be noted: FIG. 2. The series is classed as cell-based. The text has this:
(§2) An additional embodiment of the invention is directed towards methods of treating sexually transmitted diseases (STDs). Many of the fungal species responsible for STDs are likely to be inhibited or killed by application of one or more of the inventive hexapeptides of Table 1. Examples of such species include C. albicans, C. glabrata, and C. tropicalis. The inventive hexapeptide/s may additionally be used against other agents responsible for STDs including viruses and bacteria. The hexapeptide/s can be administered to an STD patient by any acceptable method, such as topical, oral, or systemic delivery. The hexapeptide/s can be administered in a single dose, in multiple doses, or as a continuous delivery. The hexapeptide/s can be administered in any acceptable form, such as a cream, gel, or liquid. An indication of the likelihood of activity of the hexapeptides of the present invention in the vaginal environment is shown in FIG. 2, where the activity of SEQ ID NO:55 is shown in killing curves against C. Albicans and S. aureus.

The next series relates to S. aureus. The series can be described thus: Kill curve in vaginal simulant, S. aureus. The series is classed as cell-based. Conditions: FIG. 2.
Text: as §2

Series [1] relates to azole resistant strains of C. albicans. The series is classed as cell-based. To be noted: azole resistant strains of C. albicans. The method, then: as §1
All strains are azole resistant clinical isolates from Prof. Ted White (Seattle Biotechnology Research Institute, Seattle)

In another series the test system is Lipoteichoic acid (LTA). The series can be described thus: LTA binding assay. To be noted: FIG. 7. The text has this:
Lipoteichoic acid (LTA) is a common cell wall component of gram-positive bacteria including organisms such as S. aureus and P. acnes. The release of LTA during infection can lead to the release of mediators of the host inflammatory response which in turn can result in sepsis (septic shock). For example, when injected into animals, LTA can elicit many of the characteristic features of septic shock, including cytokine production, leukocytopenia, circulatory failure, multiple-organ dysfunction syndrome, and mortality.

Details of series [2]: species or system Sprague-Dawley rats. Conditions: rat, in vivo. The text has this: Each wound observed at each dressing change and the wound surface and tissue reaction assessed. There were 5 parameters of wound status that were checked: • i. Wound Film Security—Was the adhesive film used to cover the wound still completely adherent to the skin around the wound? • ii. Wound Surface—What was the exact visual appearance of the wound surface? • iii. Amount of Exudate—How much exudate was trapped under the film? In many cases, accumulated exudate causes the film to lose adherence and the exudates will escape. • iv. Severity of Tissue Reaction—A subjective rating of extent of tissue reaction on a scale of 1 (minimal), 2 (moderate), 3 (extensive). • v. % of Tissue Involved—In some situations, the wound surface contained denatures, friable tissue that could be wiped off with pressure applied to gauze. This test was used to better differentiate denatured tissue from viscous exudates.

Take `CCCCCCCC(=O)N[C@@H](CCCCN)C(=O)N[C@@H](Cc1ccccc1)C(=O)N[C@@H](CCCCN)C(=O)N[C@@H](Cc1c[nH]c2ccccc12)C(=O)N1CCC[C@H]1C(=O)N[C@@H](Cc1c[nH]c2ccccc12)C(N)=O` [SEQ ID NO:55] (Octanoyl-KFKWPW-NH2): the “ability to kill S. aureus in serum (in words)” value in the series on MRSA was “increased ability”. The “synergy with polymyxin B (in words)” value in the series with P. aeruginosa is “displayed synergistic activity”. Besides, the “killing in vaginal simulant (in words)” value with C. albicans and in the series with S. aureus was “killing” in each case. Further, in series [1], the “synergy with clotrimazole (in words)” value is on record as “exhibits synergy”. Also, the “LTA binding (in words)” value in the series with Lipoteichoic acid (LTA) is reported as “fail to bind LTA”. Further, in series [2], the “tissue reaction (in words)” value is listed as “mild”.
